What was measured:
Assay in all cases: Number of living cells counted by flow cytometry (FACSort) after D1R agonist
Format in all cases: cell-based
Conditions in all cases: 10^−3M-10^−6M, 3 days
[1] = tested on: resting normal human T-cells
Description: (§1) Afterwards, the microtiter plates were placed in an incubator (37° C., humidified incubator, 5% CO2) for 3 days. Then, the number of living cells was evaluated by flow cytometry (the cells were counted by FACsort for a fixed time length of 1 min, in which 100 microliter of each sample was tested).
FIGS. 31A and B are graphs showing that A 77636 hydrochloride kills much more TCR-activated (FIG. 31B) than resting normal (FIG. 31A) human T-cells. […] The cells were then transferred to the incubator for 72 hr incubation. At the end of the 72 hr incubation, the number of living cells in each well was evaluated by flow cytometry (the cells were counted by FACsort for a fixed time length of 1 min, in which 100 microliter of each sample was tested).
(§2) Cell viability was tested afterwards.

[2] = tested on: Human Burkitt's B-lymphoma cells (Daudi)
Description: Human Burkitt's B-lymphoma cells (Daudi) were seeded in 96 well plates (0.5 ml per well of 0.5 million cells/ml) and A 77636 hydrochloride was added and diluted 1:00 into the wells at starting concentrations of 10^−1M-10^−4M, so that the final concentration range tested was 10^−3M-10^−6M. […] Then, the number of living cells was evaluated by flow cytometry (the cells were counted by FACsort for a fixed time length of 1 min, in which 100 microliter of each sample was tested).
Human Burkitt's B-lymphoma cells (Daudi) were seeded in 96 well plates (0.5 ml per well of 0.5 million cells/ml) and A 68930 hydrochloride was added and diluted 1:00 into the wells at starting concentrations of 10^−1M-10^−4M, so that the final concentration range tested was 10^−3M-10^−6M. […] Then, the number of living cells was evaluated by flow cytometry (the cells were counted by FACsort for a fixed time length of 1 min, in which 100 microliter of each sample was tested).
[…] Then, the number of living cells was evaluated by flow cytometry (the cells were counted by FACsort for a fixed time length of 1 min, in which 100 microliter of each sample was tested).
as §2
(§3) The effect of dopamine itself (that can of course activate all its D1R-5 receptors) was also tested. All of these molecules were tested at a similar concentration (10^−4 M). […] The specificity and restriction of the effect to the D1R is also seen in Tables 7 and 8.

[3] = tested on: Human T-cell leukemia (Jurkat) cells
Description: Afterwards, the microtiter plates were placed in an incubator (37° C., humidified incubator, 5% CO2) for 3 days. Then, the number of living cells was evaluated by flow cytometry (the cells were counted by FACsort for a fixed time length of 1 min, in which 100 microliter of each sample was tested). Of note, A 77636 hydrochloride is an orally-active D1R agonist, according to the manufacturer (Tocris).
as §1
(§4) The experiment was designed to test the effect of exposing the cells to the D1R agonist for 1 min, 15 min, 1 hr or 72 hr. Thus, 1 min, or 15 min or 1 hr after the addition of the D1R agonist, the corresponding cells were transferred into tubes, centrifuged (1000 rpm for 10 min); and the supernatant was removed. […] Thus, its medium was not replaced, and these cells and remained as such in the incubator for 72 hr. At the end of the 72 hr incubation, the number of living cells was evaluated by flow cytometry (the cells were counted by FACsort for a fixed time length of 1 min, in which 100 microliter of each sample was tested).
as §2
(§5) For this purpose, the Jurkat T-cell leukemia line, the HuT-78 human T-lymphoma (cutaneous “Sezary” T-lymphoma) line, and the K-562 human Chronic-Myeloid Leukemia (CML) and Daudi Human B-lymphoma (Burkitt's lymphoma) lines were seeded in tissue culture wells (0.5 million cells/0.5 ml/well).
(§6) Cell survival/death was evaluated 3 days later by counting the number of living cells, using flow cytometry.

[4] = tested on: Human Burkitt's B-cell lymphoma (Raji) cells
Description: as §1, §2

[5] = tested on: Human cutaneous Sezary T-lymphoma cells (HuT-78)
Description: (§7) Human cutaneous Sezary T-lymphoma cells (HUT-78) were seeded in 96 well plates (0.5 ml per well of 0.5 million cells/ml) and A 77636 hydrochloride was added and diluted 1:00 into the wells at starting concentrations of 10^−1M-10^−4M, so that the final concentration range tested was 10^−3M-10^−6M. Afterwards, the microtiter plates were placed in an incubator (37° C., humidified incubator, 5% CO2) for 3 days. Then, the number of living cells was evaluated by flow cytometry (the cells were counted by FACsort for a fixed time length of 1 min, in which 100 microliter of each sample was tested).
(§8) Human cutaneous Sezary T-lymphoma cells (HUT-78) were seeded in 96 well plates (0.5 ml per well of 0.5 million cells/ml) and A 68930 hydrochloride was added and diluted 1:00 into the wells at starting concentrations of 10^−1M-10^−4M, so that the final concentration range tested was 10^−3M-10^−6M. Afterwards, the microtiter plates were placed in an incubator (37° C., humidified incubator, 5% CO2) for 3 days. Then, the number of living cells was evaluated by flow cytometry (the cells were counted by FACsort for a fixed time length of 1 min, in which 100 microliter of each sample was tested).
(§9) Human cutaneous Sezary T-lymphoma cells (HUT-78) were seeded in 96 well plates (0.5 ml per well of 0.5 million cells/ml) and SKF 38393 hydrobromide was added and diluted 1:00 into the wells at starting concentrations of 10^−1M-10^−4M, so that the final concentration range tested was 10^−3M-10^−6M. Afterwards, the microtiter plates were placed in an incubator (37° C., humidified incubator, 5% CO2) for 3 days. Then, the number of living cells was evaluated by flow cytometry (the cells were counted by FACsort for a fixed time length of 1 min, in which 100 microliter of each sample was tested).
Cell viability was tested afterwards. […]
as §6

[6] = tested on: Human chronic myelogenous leukemia cells (CML) (K-562)
Description: as §7, with “chronic myelogenous leukemia” for “cutaneous Sezary T-lymphoma”, “(CML) (K-562)” for “(HUT-78)”
as §8, with “chronic myelogenous leukemia” for “cutaneous Sezary T-lymphoma”, “(CML) (K-562)” for “(HUT-78)”
as §9, with “chronic myelogenous leukemia” for “cutaneous Sezary T-lymphoma”, “(CML) (K-562)” for “(HUT-78)”
as §4, with “Human chronic myelogenous leukemia cells (CML) (K-562) were seeded in 96 well plates (0.5 ml per well of 0.5 million cells/ml) and A 77636 hydrochloride was added and diluted 1:00 into the wells, at a fixed starting concentration of 10^−2M, so that the final concentration tested was 10^−4M. The” for “The”, “min),” for “min);”
as §2, §5, §6, §3

Cl.NC[C@@H]1O[C@H](c2ccccc2)Cc2c1ccc(O)c2O (racemic) [A 68930 hydrochloride, cis-(±)-1-(aminomethyl)-3,4-dihydro-3-phenyl-1H-2-benzopyran-5,6-diol hydrochloride]
Killing effect by number of living cells (FIGS. 25-27), in words [1]: significantly milder killing effect | Cell death by number of living cells (FIGS. 16-18), in words [2]: induces marked cell death | Cell death by number of living cells (FIGS. 10-12), in words [3]: induces marked cell death | Cell death by number of living cells (FIGS. 19-21), in words [4]: induces marked cell death | Cell death by number of living cells (FIGS. 13-15), in words [5]: induces marked cell death | Cell death by number of living cells (FIGS. 22-24), in words [6]: induces marked cell death

— patent publication US20080311657A1, “Killing Human Lymphoma and Leukemia Cancer Cells and Tcr-Activated Normal Human Cells By Dopamine D1r Agonists” (priority 2005, published 2008)
